The supplement of paper PMC11208160

Assay: recombinant barcode read abundance after kanamycin selection (control-corrected) (log10(CPM+1)); higher = more efficient recombination; sequences stand for … in AGTGCAGAGAAAATCGGCCAGTTTTCTCTGCCTGCAGTCCGCATGCCGT…AGATTTATGCAGCGGACTGCCTTTCTCCCAAAGTGATAAACCGGACAGTATCATGGACCGGTTTTCCCGGTAATCCGTATTTGCAAGGTTGGTTTCACT; site = the 11-nt target
Summary of the method: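 In E. coli, a pooled library matched targets to IS621 bridge RNA target-binding loops and was introduced alongside a donor plasmid. Cells went onto chloramphenicol/ampicillin/kanamycin with 0.1 mM IPTG or onto chloramphenicol/ampicillin LB agar as control, in duplicate. Recombination efficiency, from recombinant-junction barcodes as counts per million, is averaged and control-corrected. It is reported as log10(CPM+1).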
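Also: IS621 recombinase and bridge RNA in Escherichia coli cells.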

TAGTCCTCTTGGGTTCTAACCTGTTGCTA (site TAGTCCTCTCA)
recombinant barcode read abundance (log10): 0.0797

TAGTCCTCTTGGGTTCTAACCTGTTGCTA (site TAGTCCTCTGA)
recombinant barcode read abundance (log10): 0.0492

TAGTCCTCTTGGGTTCTAACCTGTTGCTA (site TAGTCCTCTTA)
recombinant barcode read abundance (log10): 1.05

TAGTCCTCTTGGGTTCTAACCTGTTGCTC (site TAGTCCTCTAA)
recombinant barcode read abundance (log10): 0.0149

TAGTCCTCTTGGGTTCTAACCTGTTGCTC (site TAGTCCTCTCA)
recombinant barcode read abundance (log10): 0.0708

TAGTCCTCTTGGGTTCTAACCTGTTGCTC (site TAGTCCTCTGA)
recombinant barcode read abundance (log10): 0.935

TAGTCCTCTTGGGTTCTAACCTGTTGCTC (site TAGTCCTCTTA)
recombinant barcode read abundance (log10): 0.118

TAGTGAACTTGGGTTCTAACCTGTTGCAC (site GCCGAGCCTTG)
recombinant barcode read abundance (log10): 0.0124

TAGTGAACTTGGGTTCTAACCTGTTGCAC (site TAGTGAACTGT)
recombinant barcode read abundance (log10): 0.347

TAGTGCTCTTGGGTTCTAACCTGTTGCCA (site TAGTGCTCTAG)
recombinant barcode read abundance (log10): 0.444

TAGTGCTCTTGGGTTCTAACCTGTTGCCA (site TAGTGCTCTCG)
recombinant barcode read abundance (log10): 0.0477

TAGTGCTCTTGGGTTCTAACCTGTTGCCA (site TAGTGCTCTGG)
recombinant barcode read abundance (log10): 0.00954

TAGTGCTCTTGGGTTCTAACCTGTTGCCA (site TAGTGCTCTTG)
recombinant barcode read abundance (log10): 1.16

TAGTGCTCTTGGGTTCTAACCTGTTGCCG (site TAGTGCTCTAG)
recombinant barcode read abundance (log10): 0.595

TAGTGCTCTTGGGTTCTAACCTGTTGCCG (site TAGTGCTCTCG)
recombinant barcode read abundance (log10): 1.24

TAGTGCTCTTGGGTTCTAACCTGTTGCCG (site TAGTGCTCTGG)
recombinant barcode read abundance (log10): 0.0187

TAGTGCTCTTGGGTTCTAACCTGTTGCCG (site TAGTGCTCTTG)
recombinant barcode read abundance (log10): 0.355

TAGTGCTCTTGGGTTCTAACCTGTTGCTC (site TAGAGCTCTCA)
recombinant barcode read abundance (log10): 0.185

TAGTGCTCTTGGGTTCTAACCTGTTGCTC (site TAGTGCTCTGA)
recombinant barcode read abundance (log10): 1.07

TAGTGGACTTGGGTTCTAACCTGTTGCCA (site TAGTGGACTTG)
recombinant barcode read abundance (log10): 0.466

TAGTGGACTTGGGTTCTAACCTGTTGCCA (site TAGTGGCCTTG)
recombinant barcode read abundance (log10): 0.151

TAGTGTGCTTGGGTTCTAACCTGTTGCTT (site TAGTGTGCTAA)
recombinant barcode read abundance (log10): 0.31

TAGTGTGCTTGGGTTCTAACCTGTTGCTT (site TAGTGTGCTAC)
recombinant barcode read abundance (log10): 0.117

TAGTTACCTTGGGTTCTAACCTGTTGCCG (site TACTTAGCTCG)
recombinant barcode read abundance (log10): 0.00977

TAGTTACCTTGGGTTCTAACCTGTTGCCG (site TAGTTACCTCG)
recombinant barcode read abundance (log10): 0.612

TAGTTAGCTTGGGTTCTAACCTGTTGCCC (site TAGTTAGCTAG)
recombinant barcode read abundance (log10): 0.0394

TAGTTAGCTTGGGTTCTAACCTGTTGCCC (site TAGTTAGCTCG)
recombinant barcode read abundance (log10): 0.0413

TAGTTAGCTTGGGTTCTAACCTGTTGCCC (site TAGTTAGCTGG)
recombinant barcode read abundance (log10): 0.945

TAGTTAGCTTGGGTTCTAACCTGTTGCCC (site TAGTTAGCTTG)
recombinant barcode read abundance (log10): 0.0262

TAGTTGACTTGGGTTCTAACCTGTTGCCA (site TAGTTAACTTG)
recombinant barcode read abundance (log10): 0.45

TAGTTGACTTGGGTTCTAACCTGTTGCCA (site TAGTTCACTTG)
recombinant barcode read abundance (log10): 0.00742

TAGTTGACTTGGGTTCTAACCTGTTGCCA (site TAGTTGACTTG)
recombinant barcode read abundance (log10): 0.986

TAGTTGACTTGGGTTCTAACCTGTTGCCA (site TAGTTTACTTG)
recombinant barcode read abundance (log10): 0.0255

TATAAGACTTGGGTTCTAACCTGTTGCAC (site TAGAAGACTAT)
recombinant barcode read abundance (log10): 0.587

TATAAGACTTGGGTTCTAACCTGTTGCAC (site TATAAGACTGT)
recombinant barcode read abundance (log10): 0.755

TATAATACTTGGGTTCTAACCTGTTGCGA (site TATAATACTTC)
recombinant barcode read abundance (log10): 0.32

TATAATACTTGGGTTCTAACCTGTTGCGA (site TATACTACTTA)
recombinant barcode read abundance (log10): 0.0449

TATAATGCTTGGGTTCTAACCTGTTGCGT (site ATCGGACCTCA)
recombinant barcode read abundance (log10): 0.15

TATAATGCTTGGGTTCTAACCTGTTGCGT (site TATAATGCTAC)
recombinant barcode read abundance (log10): 0.335

TATACTACTTGGGTTCTAACCTGTTGCTA (site TATAATACTTC)
recombinant barcode read abundance (log10): 0.511

TATACTACTTGGGTTCTAACCTGTTGCTA (site TATACTACTTA)
recombinant barcode read abundance (log10): 0.0716

TATAGCTCTTGGGTTCTAACCTGTTGCCT (site AATAGCTCTAG)
recombinant barcode read abundance (log10): 0.0791

TATAGCTCTTGGGTTCTAACCTGTTGCCT (site CATAGCTCTAG)
recombinant barcode read abundance (log10): 0.242

TATAGCTCTTGGGTTCTAACCTGTTGCCT (site GATAGCTCTAG)
recombinant barcode read abundance (log10): 0.106

TATAGCTCTTGGGTTCTAACCTGTTGCCT (site TATAGCTCTAG)
recombinant barcode read abundance (log10): 0.479

TATAGGGCTTGGGTTCTAACCTGTTGCCG (site GATAGGGCTCC)
recombinant barcode read abundance (log10): 0

TATAGGGCTTGGGTTCTAACCTGTTGCCG (site TATAGGGCTCG)
recombinant barcode read abundance (log10): 0.402

TATATATCTTGGGTTCTAACCTGTTGCAT (site AGGTGTCCTTC)
recombinant barcode read abundance (log10): 0.112

TATATATCTTGGGTTCTAACCTGTTGCAT (site TATATATCTAT)
recombinant barcode read abundance (log10): 0.23

TATCAGACTTGGGTTCTAACCTGTTGCAG (site TATCAGACTCT)
recombinant barcode read abundance (log10): 1.45

TATCAGACTTGGGTTCTAACCTGTTGCAG (site TCTCAGGCTCT)
recombinant barcode read abundance (log10): 0.121

TATCAGCCTTGGGTTCTAACCTGTTGCTT (site CATCAGCCTAC)
recombinant barcode read abundance (log10): 0.0522

TATCAGCCTTGGGTTCTAACCTGTTGCTT (site TATCAGCCTAA)
recombinant barcode read abundance (log10): 0.0238

TATCCCTCTTGGGTTCTAACCTGTTGCCT (site ATCAAGCCTCT)
recombinant barcode read abundance (log10): 0.18

TATCCCTCTTGGGTTCTAACCTGTTGCCT (site TATCCCTCTAG)
recombinant barcode read abundance (log10): 1.14

TATCCGACTTGGGTTCTAACCTGTTGCCA (site TATCCGACTAG)
recombinant barcode read abundance (log10): 0.56

TATCCGACTTGGGTTCTAACCTGTTGCCA (site TATCCGACTCG)
recombinant barcode read abundance (log10): 0.142

TATCCGACTTGGGTTCTAACCTGTTGCCA (site TATCCGACTGG)
recombinant barcode read abundance (log10): 0.0584

TATCCGACTTGGGTTCTAACCTGTTGCCA (site TATCCGACTTG)
recombinant barcode read abundance (log10): 0.135

TATGGAGCTTGGGTTCTAACCTGTTGCTG (site AATGGGGCTCA)
recombinant barcode read abundance (log10): 0.523

TATGGAGCTTGGGTTCTAACCTGTTGCTG (site TATGGAGCTCA)
recombinant barcode read abundance (log10): 1.58

TATGGGACTTGGGTTCTAACCTGTTGCCT (site TATCGCACTAG)
recombinant barcode read abundance (log10): 0.0772

TATGGGACTTGGGTTCTAACCTGTTGCCT (site TATGGGACTAG)
recombinant barcode read abundance (log10): 1.25

TATGGTACTTGGGTTCTAACCTGTTGCGT (site GGGATACCTTA)
recombinant barcode read abundance (log10): 0.0757

TATGGTACTTGGGTTCTAACCTGTTGCGT (site TATGGTACTAC)
recombinant barcode read abundance (log10): 2.22

TATGGTTCTTGGGTTCTAACCTGTTGCCT (site TATGCTTCTAA)
recombinant barcode read abundance (log10): 0.0349

TATGGTTCTTGGGTTCTAACCTGTTGCCT (site TATGGTTCTAG)
recombinant barcode read abundance (log10): 0.502

TATTAGACTTGGGTTCTAACCTGTTGCCT (site AATTAGACTAG)
recombinant barcode read abundance (log10): 0.158

TATTAGACTTGGGTTCTAACCTGTTGCCT (site CATTAGACTAG)
recombinant barcode read abundance (log10): 0.13

TATTAGACTTGGGTTCTAACCTGTTGCCT (site GATTAGACTAG)
recombinant barcode read abundance (log10): 0.209

TATTAGACTTGGGTTCTAACCTGTTGCCT (site TATTAGACTAG)
recombinant barcode read abundance (log10): 0.225

TATTCTACTTGGGTTCTAACCTGTTGCGT (site TATTCTACTAC)
recombinant barcode read abundance (log10): 0.0342

TATTCTACTTGGGTTCTAACCTGTTGCGT (site TATTCTACTCC)
recombinant barcode read abundance (log10): 0.365

TATTCTACTTGGGTTCTAACCTGTTGCGT (site TATTCTACTGC)
recombinant barcode read abundance (log10): 0.0341

TATTCTACTTGGGTTCTAACCTGTTGCGT (site TATTCTACTTC)
recombinant barcode read abundance (log10): 0.0549

TATTGGACTTGGGTTCTAACCTGTTGCAC (site TATTGGACTAT)
recombinant barcode read abundance (log10): 0.0463

TATTGGACTTGGGTTCTAACCTGTTGCAC (site TATTGGACTCT)
recombinant barcode read abundance (log10): 0.122
